pIC50: −log10 of the molar value. Where “and” joins values, the source holds several entries; their conditions need not be identical. Equal entries are not always repeated. Where two headings read alike, the source gives them in different places. Where a SMILES comes first, the peptide text is derived from it.
Experiments:
HIV protease [1] = target: T1, HIV protease (Human immunodeficiency virus type 1 group M subtype B, UniProt P04585); format: biochemical; parameters: made in house; host or cells: chemical synthesis (gift of Dr. Stephen Kent, Caltech) or E. coli (gift of Dr. George Glover, Monsanto); settings: for Relative Rate: relative cleavage rate: percent of standard substrate concentration cleaved in twenty minutes, control Ac-Thr-Ile-Met-Met-Gln-Arg-NH2 = 1.00
Method: HIV protease assay. The HIV protease assay was conducted using either synthetic HIV protease [Schneider and Kent, Cell 54, 363 (1988)] kindly supplied by Dr. Stephen Kent of Caltech, or cloned material expressed in E. coli supplied by Dr. George Glover of the Monsanto Company. […] Synthetic protease (1 mg/ml) was dissolved in a buffer (20 mM PIPES, 0.5% NP-40 detergent, 1 mM dithiothreitol), pH 6.5 . Substrates were also dissolved in the same buffer at 1 mg/ml concentration. 5 μl 1 of substrate and 5 μl of HIV protease were added to an Eppendorf tube which was centrifuged for one minute and incubated at 25° for the desired time. The reaction was stopped by the addition of 50 μl of 50% TFA. The sample was diluted with 200 μl of water and applied to a C4 HPLC column developed with 0.1% TFA for 5 min followed by a gradient of 0-50% acetonitrile in 50 min. For inhibitor studies, 5 μl of the protease solution was preincubated for 10 min with the 5 μl of inhibitor (dissolved in 10% DMSO and diluted to 1 mg/ml with buffer). Then 5 μl of test substrate, acetyl-Thr-Ile-Met-Met-Gln-Arg-NH2 was added in order to determine inhibition of cleavage. Reactions were stopped as above and cleavage rates were monitored by HPLC as above.
Substrate analogs were prepared in order to examine the relative hydrolysis rates of the various sites. […] Relative cleavage rates were measured by comparing the percent of a standard substrate concentration cleaved by the same concentration of enzyme in twenty minutes (linear portion of curve).

HIV protease [2] = target: T1, HIV protease; settings: cited from earlier work
[3] = target: T2, retroviral protease (HIV-1) (Human immunodeficiency virus type 1 group M subtype B, UniProt P04585); experiment: fluorometric assay for HIV protease (Toth and Marshall); format: biochemical; settings: for inhibition at 10 µM: read-out: percent at 10 μM, at 10 μM; for pIC50: where isomers were resolved, activities of both isomers are shown
T2 construct: the retroviral protease, is contained within the polyprotein
Method: These peptide analogs were assayed in solution for their ability to inhibit retroviral protease (HIV-1) by a fluorometric assay for HIV protease as described by Toth and Marshall, Int. J. Peptide Protein Res. 36, 546-550 (1990), and in U.S. Pat. No. 5,011,910.
Table 2, below, sets forth the median inhibitory concentration, IC50, (μM) for the compounds thus tested. In those cases where the isomers were resolved, the activities of both isomers are shown.

## Ac-QNYPIV-NH2 [Ac--Gln--Asn--Tyr--Pro--Ile--Val--NH2]
HIV protease [1]
  Relative Rate: 0.04

## acetyl-QNY-PIV
HIV protease [2]
  cleavage by HIV protease: failed to be cleaved

## SQNY-PIV
HIV protease [2]; relative to VSQNYPIV
  rate of cleavage relative to the octapeptide: 90%

## VSQNYPIV
HIV protease [2]; gag p17/gag p24 cleavage site substrate
  Km: 2.5 mM

## Aba--Thr--Ile--Nle--PnF--Gln--Arg--NH2
HIV protease [1]
  Relative Rate: 1.46

## CCCC[C@H](NC(=O)c1ccc2ccccc2n1)C(=O)CC(Cc1ccc2ccccc2c1)C(=O)N[C@@H](CCC(N)=O)C(=O)N[C@@H](CCCNC(=N)N)C(N)=O (stereo partly drawn) [Qua--Nle.psi.(K)2-Nal--Gln--Arg--NH2, Qua-Nle.PSI.(K)2-Nal-Gln-Arg-NH2]
[3]
  inhibition at 10 µM: 96%

## CCCC[C@H](NC(=O)[C@@H](NC(=O)c1cnc2ccccc2n1)[C@@H](C)CC)C(=O)CC(Cc1ccc2ccccc2c1)C(=O)N[C@@H](CCC(N)=O)C(N)=O (stereo partly drawn) [Qui--Ile--Nle.psi.(K)2-Nal--Gln--NH2, Qui-Ile-Nle.PSI.(K)2-Nal-Gln-NH2]
[3]
  inhibition at 10 µM: 54%

## Ac-TIMMQR-NH2 [Ac--Thr--Ile--Met--Met--Gln--Arg--NH2, Ac-Thr-Ile-Met-Met-Gln-Arg-NH2]
HIV protease [1]; as substrate of HIV protease
  Km: 1.4 mM
  Vmax: 725 nmol/min/mg
HIV protease [1]
  Relative Rate: 1.00

## SQNY-PI
HIV protease [2]
  cleavage by HIV protease: failed to be cleaved

## CCCC[C@H](NC(=O)c1cnc2ccccc2n1)C(=O)CC(Cc1ccc2ccccc2c1)C(=O)N[C@@H](CCC(N)=O)C(N)=O (stereo partly drawn) [Qui--Nle.psi.(K)2-Nal--Gln--NH2, Qui-Nle.PSI.(K)2-Nal-Gln-NH2]
[3]
  inhibition at 10 µM: 7%

## CCCC[C@H](NC(=O)[C@@H](NC(=O)c1ccc2ccccc2n1)[C@@H](C)CC)C(=O)CC(Cc1ccc2ccccc2c1)C(=O)N[C@@H](CCC(N)=O)C(=O)N[C@@H](CCCNC(=N)N)C(N)=O (stereo partly drawn) [Qua-Ile-Nle.PSI.(K)2-Nal-Gln-Arg-NH2]
[3]
  pIC50: 8.07

## CCCC[C@H](NC(=O)[C@@H](NC(=O)[C@@H](NC(=O)c1cnc2ccccc2n1)[C@@H](C)O)[C@@H](C)CC)C(=O)CC(Cc1ccc2ccccc2c1)C(=O)N[C@@H](CCC(N)=O)C(N)=O (stereo partly drawn) [Qui-Thr-Ile-Nle.PSI.(K)2-Nal-Gln-NH2]
[3]
  pIC50: 5.95 and 5.09

## CC[C@H](C)[C@H](NC(=O)[C@@H](NC(=O)c1ccccc1N)[C@@H](C)O)C(=O)N[C@@H](Cc1ccccc1)C(=O)CC(C)C(=O)N[C@@H](CCC(N)=O)C(=O)N[C@@H](CCCNC(=N)N)C(N)=O (stereo partly drawn) [Abz-Thr-Ile-Phe.PSI.(K)Ala-Gln-Arg-NH2] (HELM PEPTIDE1{[Nc1ccccc1C(=O)[*:2]].T.I.[CC(CC(=O)[C@H](Cc1ccccc1)N[*:1])C(=O)[*:2]].Q.R.[am]}$$$$V2.0)
[3]
  pIC50: 7.48

## Ac--Thr--Ile--Nle--Hle--Gln--Arg--NH2
HIV protease [1]
  Relative Rate: 0.95

## CCCC[C@H](NC(=O)[C@@H](NC(=O)[C@@H](NC(=O)c1ccccc1N)[C@@H](C)O)[C@@H](C)CC)C(=O)CC(Cc1ccc2ccccc2c1)C(=O)N[C@@H](CCC(N)=O)C(=O)N[C@@H](CCCNC(=N)N)C(N)=O (stereo partly drawn) [Abz-Thr-Ile-Nle-.PSI.(K)2-Nal-Gln-Arg-NH2] (HELM PEPTIDE1{[Nc1ccccc1C(=O)[*:2]].T.I.[CCCC[C@H](N[*:1])C(=O)CC(Cc1ccc2ccccc2c1)C(=O)[*:2]].Q.R.[am]}$$$$V2.0)
[3]
  pIC50: 8.32

— patent US5086165A, “Inhibitors of retroviral protease with a ketomethylene isosteric replaced amide bond” (Washington University, priority 1991, dated 1992)
